Source: patent US20090016990A1, “Antimicrobial Compositions” (priority 2007, published 2009)

Tests used:
[1] = tested on: P aeruginosa 10145; assay: Synergy of Zosteric Acid (ZA) with HOCL, MIC in M9GY; format: cell-based; conditions: M9GY
[2] = tested on: Pseudomonas aeruginosa ATCC 27853; assay: MBEC assay, biofilm inhibition (prevention of biofilm formation), MBEC bioFILM PA panel; format: cell-based; parameters: MBEC-Biofilm Inhibition, Without compound 9 / MBEC-Biofilm Inhibition, Without compound 6 / MBEC-Biofilm Inhibition, Without compound 2 / MBEC-Biofilm Inhibition, Without compound 7 / MBEC-Biofilm Inhibition, With 0.01% compound 7 in 5% EtOH/PBS / MBEC-Biofilm Inhibition, without salt of compound 2 / MBEC-Biofilm Inhibition, with 0.1% salt of compound 2 / MBEC-Biofilm Inhibition, without salt of compound 6: unit not given here
[3] = tested on: Pseudomonas aeruginosa ATCC 27853; assay: MBEC assay, biofilm elimination, MBEC bioFILM PA panel; format: cell-based; parameters: MBEC-Biofilm Elimination, Without compound 2 / MBEC-Biofilm Elimination, With 0.01% compound 2 in 5% EtOH/PBS / MBEC-Biofilm Elimination, Without compound 7 / MBEC-Biofilm Elimination, With 0.01% compound 7 in 5% EtOH/PBS / MBEC-Biofilm Elimination, Without compound 1 / MBEC-Biofilm Elimination, With 0.01% compound 1 in 5% EtOH/PBS / MBEC-Biofilm Elimination, without salt of compound 2 / MBEC-Biofilm Elimination, with 0.1% salt of compound 2: unit not given here
[4] = tested on: Pseudomonas aeruginosa ATCC 27853; assay: MIC assay, planktonic growth, MBEC bioFILM PA panel; conditions: compound at 0.01%
Procedure: The MBEC bioFILM PA panel is designed for use in determining antimicrobial agent susceptibility of both planktonic and biofilm Pseudomonas aeruginosa.
From this test, the minimum antibiotic concentration—in the presence and absence of a compound of the present invention—that will inhibit bacterial growth in solution (“MIC Assay”) is determined. The minimum antibiotic concentration—in the presence and absence of a compound of the present invention—that will prevent attachment of bacteria to a test surface (“MBEC Assay”) is determined. Approximately 1,000,000-10,000,000 bacteria attach in the absence of antibiotics; lesser numbers attach in the presence of antibiotics.
MBEC bioFilm PA panel—Panel wells are inoculated with planktonic Pseudomonas aeruginosa using a 95 peg inoculation lid. Panels and pegged lids are then incubated at 35° C. for 18 h. Planktonic susceptibility and resistance is determined by measuring inhibition and growth in the presence of antimicrobial agents after incubation. Biofilm susceptibility and resistance is determined by measuring inhibition and growth after peg sonication, biofilm bacteria recovery, then incubation for additional 18-24 h at 35° C.

[5] = Table 9, antibiotic or combination plus 0.1% salt of compound 2, value per component
[6] = Table 10, antibiotic or antibiotic combination alone, value per component
[7] = Table 10, antibiotic or combination plus 0.1% salt of compound 6, value per component
[8] = with 0.01% compound 1 in 5% EtOH/PBS
[9] = with 0.01% compound 2 in 5% EtOH/PBS
[10] = with 0.01% compound 7 in 5% EtOH/PBS
[11] = with 0.05% compound 3 in 5% EtOH/PBS
[12] = with 0.05% compound 6 in 5% EtOH/PBS
[13] = with 0.1% w/v compound 9 in PBS

## OCl [HOCl]
[1]; HOCL alone
  MIC at 24 hours, Qhocl: 40 ppm
  MIC at 48 hours, Qhocl: 40 ppm
[1]; HOCL with ZA (Qza) 0 ppm
  MIC at 24 hours, Qhocl: 50 ppm
  MIC at 48 hours, Qhocl: 60 ppm
  SI-HOCL, 24 hours: 1.25
  SI-HOCL, 48 hours: 1.5
[1]; HOCL with ZA (Qza) 250 ppm
  MIC at 24 hours, Qhocl: 30 ppm
  MIC at 48 hours, Qhocl: 30 ppm
  SI-HOCL, 24 hours: 0.775
  SI-HOCL, 48 hours: 0.775
[1]; HOCL with ZA (Qza) 500 ppm
  MIC at 24 hours, Qhocl: 50 ppm
  MIC at 48 hours, Qhocl: 50 ppm
  SI-HOCL, 24 hours: 1.3
  SI-HOCL, 48 hours: 1.3
[1]; HOCL with ZA (Qza) 1000 ppm
  MIC at 24 hours, Qhocl: 50 ppm
  MIC at 48 hours, Qhocl: 50 ppm
  SI-HOCL, 24 hours: 1.35
  SI-HOCL, 48 hours: 1.35
[1]; HOCL with ZA (Qza) 2500 ppm
  MIC at 24 hours, Qhocl: 50 ppm
  MIC at 48 hours, Qhocl: 50 ppm
  SI-HOCL, 24 hours: 1.5
  SI-HOCL, 48 hours: 1.5
[1]; HOCL with ZA (Qza) 5000 ppm
  MIC at 24 hours, Qhocl: 40 ppm
  MIC at 48 hours, Qhocl: 40 ppm
  SI-HOCL, 24 hours: 1.5
  SI-HOCL, 48 hours: 1.5
[1]; HOCL with ZA (Qza) 7500 ppm
  MIC at 24 hours, Qhocl: 40 ppm
  MIC at 48 hours, Qhocl: 50 ppm
  SI-HOCL, 24 hours: 1.75
  SI-HOCL, 48 hours: 2
[1]; HOCL with ZA (Qza) 10000 ppm
  MIC at 24 hours, Qhocl: 60 ppm
  MIC at 48 hours, Qhocl: 60 ppm
  SI-HOCL, 24 hours: 2.5
  SI-HOCL, 48 hours: 2.5

## NC[C@H]1O[C@H](O[C@H]2[C@H](O)[C@@H](O[C@H]3O[C@H](CO)[C@@H](O)[C@H](N)[C@H]3O)[C@H](N)C[C@@H]2N)[C@H](N)C[C@@H]1O [TO, tobramycin]
[2]; Table 9, antibiotic or antibiotic combination alone, value per component, separated by /
  MBEC-Biofilm Inhibition, without salt of compound 2: >2
[2]; [5]
  MBEC-Biofilm Inhibition, with 0.1% salt of compound 2: >2
[2]; [6]
  MBEC-Biofilm Inhibition, without salt of compound 6: >2
[2]; [7]
  MBEC-Biofilm Inhibition, with 0.1% salt of compound 6: >2
[2]; antibiotic alone
  MBEC-Biofilm Inhibition, Without compound 1: >2
  MBEC-Biofilm Inhibition, Without compound 2: >2
  MBEC-Biofilm Inhibition, Without compound 3: >2
  MBEC-Biofilm Inhibition, Without compound 6: >2
  MBEC-Biofilm Inhibition, Without compound 7: >2
  MBEC-Biofilm Inhibition, Without compound 9: 2
[2]; antibiotic or combination alone, concentrations in order of the combination
  MBEC: >2 µg/mL
[2]; antibiotic plus Compound 1
  MBEC, μg/mL +Compound 1: 0.5 to 2 µg/mL
[2]; antibiotic plus Compound 2
  MBEC, μg/mL +Compound 2: >2 µg/mL
[2]; antibiotic plus Compound 7
  MBEC, μg/mL +Compound 7: >2 µg/mL
[2]; reduction of antibiotic or combination required to prevent biofilm formation
  (% reduction) +Compound 1: > 50%
[2]; [8]
  MBEC-Biofilm Inhibition, With 0.01% compound 1 in 5% EtOH/PBS: 0.5-2
  value in parentheses after MBEC-Biofilm Inhibition with 0.01% compound 1 (% reduction as in Table 2): ≥ 50
[2]; [9]
  MBEC-Biofilm Inhibition, With 0.01% compound 2 in 5% EtOH/PBS: >2
[2]; [10]
  MBEC-Biofilm Inhibition, With 0.01% compound 7 in 5% EtOH/PBS: >2
[2]; [11]
  MBEC-Biofilm Inhibition, With 0.05% compound 3 in 5% EtOH/PBS: >2
[2]; [12]
  MBEC-Biofilm Inhibition, With 0.05% compound 6 in 5% EtOH/PBS: >2
[2]; [13]
  MBEC-Biofilm Inhibition, With 0.1% w/v compound 9 in PBS: >2
[3]; Table 9, antibiotic or antibiotic combination alone, value per component
  MBEC-Biofilm Elimination, without salt of compound 2: >2
[3]; [5]
  MBEC-Biofilm Elimination, with 0.1% salt of compound 2: >2
[3]; [6]
  MBEC-Biofilm Elimination, without salt of compound 6: >2
[3]; [7]
  MBEC-Biofilm Elimination, with 0.1% salt of compound 6: >2
[3]; antibiotic alone
  MBEC-Biofilm Elimination, Without compound 1: >2
  MBEC-Biofilm Elimination, Without compound 2: >2
  MBEC-Biofilm Elimination, Without compound 3: >2
  MBEC-Biofilm Elimination, Without compound 6: >2
  MBEC-Biofilm Elimination, Without compound 7: >2
  MBEC-Biofilm Elimination, Without compound 9: >2
[3]; [8]
  MBEC-Biofilm Elimination, With 0.01% compound 1 in 5% EtOH/PBS: >2
[3]; [9]
  MBEC-Biofilm Elimination, With 0.01% compound 2 in 5% EtOH/PBS: 1
[3]; [10]
  MBEC-Biofilm Elimination, With 0.01% compound 7 in 5% EtOH/PBS: 0.5
[3]; [11]
  MBEC-Biofilm Elimination, With 0.05% compound 3 in 5% EtOH/PBS: >2
[3]; [12]
  MBEC-Biofilm Elimination, With 0.05% compound 6 in 5% EtOH/PBS: >2
[3]; [13]
  MBEC-Biofilm Elimination, With 0.1% w/v compound 9 in PBS: >2

## CCC(C)(C)c1ccc(OS(=O)(=O)Cl)cc1 [compound 7]
[4]
  MIC values for several antibiotics in the presence of the compound: reduced
[2]; of 47
  number of the 47 antibiotics or antibiotic combinations enhanced in activity: 10
[2]; with antibiotics
  Bacterial attachment to the test surfaces in the presence of the compound: completely inhibited at lower concentrations of antibiotics
